From PubChem BioAssay AID248 (DTP/NCI, 2004)
Several values for one entry are separate records, joined by “and”; a condition that tells them apart may be missing. Equal values may be shown once. Inconclusive results and toxic doses are left out. Cut-off read from the data, not from the text of the source: active = T/C of 150% or more; inactive = T/C below 125%. Numbered stars: 1 amine (or outer) side, 2 acyl side, 3 side chain; on linkers, the order of the positions; unused ones are H or OH. Bridge positions count the residues as written; N and C are the ends. Square brackets hold non-standard residues; d marks the D form. Peptide text beside a SMILES is read from it. I, II: the chains in the order shown. Actinocin(9to1) = Cc1c2oc3c(C)ccc(C(=O)[*:1])c3nc-2c(C(=O)[*:2])c(N)c1=O; aThr = C[C@H](O)[C@H](N)C(=O)O; NMeV = CN[C@H](C(=O)O)C(C)C; Sar = CNCC(=O)O

System: L1210 leukemia ip in BDF1 mice, survival T/C
Experiment: NCI In Vivo Anticancer Drug Screen. Data for tumor model L1210 Leukemia (intraperitoneal) in B6D2F1 (BDF1) mice
Conditions: higher = longer survival
Method in brief: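 Tumor cells were implanted, animals were treated, and survival was followed. The result divides the treated measurement by the vehicle-control measurement.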

Measured: T/C

Cc1c2oc3c(C)ccc(C(=O)N[C@@H]4C(=O)N[C@H](C(C)C)C(=O)N5CCC[C@H]5C(=O)N(C)CC(=O)N(C)[C@@H](C(C)C)C(=O)O[C@H]4C)c3nc-2c(C(=O)N[C@@H]2C(=O)N[C@H](C(C)C)C(=O)N3CCC[C@H]3C(=O)N(C)CC(=O)N(C)[C@@H](C(C)C)C(=O)O[C@H]2C)c(N)c1=O (I: [aThr][dV]P[Sar][NMeV] / II: [aThr][dV]P[Sar][NMeV]; ester I:1-I:C, II:1-II:C; linker I:N-II:N via Actinocin(9to1))
inactive: endpoint: mean survival time, dose: 0.02 mg/kg/injection, schedule: Q04DX003 (ip), vehicle: water 102 % of control and 105 % of control | endpoint: mean survival time, dose: 0.03 mg/kg/injection, schedule: Q01DX009 (ip), vehicle: saline 111 % of control | endpoint: mean survival time, dose: 0.03 mg/kg/injection, schedule: Q04DX003 (ip), vehicle: water 105 % of control and 110 % of control | endpoint: mean survival time, dose: 0.05 mg/kg/injection, schedule: Q01DX009 (ip), vehicle: saline 111 % of control | endpoint: mean survival time, dose: 0.05 mg/kg/injection, schedule: Q04DX003 (ip), vehicle: other 103 % of control | endpoint: mean survival time, dose: 0.1 mg/kg/injection, schedule: Q01DX009 (ip), vehicle: saline + alcohol 103 % of control | endpoint: mean survival time, dose: 0.11 mg/kg/injection, schedule: Q01DX001 (ip), vehicle: saline 108 % of control | endpoint: mean survival time, dose: 0.12 mg/kg/injection, schedule: Q01DX Z (ip), vehicle: carboxymethylcellulose (CMC) 102 % of control | endpoint: mean survival time, dose: 0.13 mg/kg/injection, schedule: Q01DX009 (ip), vehicle: saline 103 % of control | endpoint: mean survival time, dose: 0.15 mg/kg/injection, schedule: Q02DX010 (ip), vehicle: carboxymethylcellulose (CMC) 104 % of control | endpoint: mean survival time, dose: 0.16 mg/kg/injection, schedule: Q01DX Z (ip), vehicle: carboxymethylcellulose (CMC) 94 % of control | endpoint: mean survival time, dose: 0.16 mg/kg/injection, schedule: Q## X032 (ip), vehicle: saline 107 % of control | endpoint: mean survival time, dose: 0.2 mg/kg/injection, schedule: Q01DX009 (ip), vehicle: saline 109 % of control | endpoint: mean survival time, dose: 0.22 mg/kg/injection, schedule: Q02DX010 (ip), vehicle: other 100 % of control | endpoint: mean survival time, dose: 0.23 mg/kg/injection, schedule: Q02DX010 (ip), vehicle: carboxymethylcellulose (CMC) 92 % of control | endpoint: mean survival time, dose: 0.24 mg/kg/injection, schedule: Q## X032 (ip), vehicle: saline 109 % of control | endpoint: mean survival time, dose: 0.3 mg/kg/injection, schedule: Q## X032 (ip), vehicle: saline 110 % of control | endpoint: mean survival time, dose: 1.0 mg/kg/injection, schedule: Q## X004 (ip), vehicle: saline 101 % of control | endpoint: mean survival time, dose: 0.7 micrograms/kg/injection, schedule: Q01DX009 (ip), vehicle: saline 100 % of control and 104 % of control | endpoint: mean survival time, dose: 0.8 micrograms/kg/injection, schedule: Q01DX Z (ip), vehicle: saline 104 % of control | endpoint: mean survival time, dose: 1.5 micrograms/kg/injection, schedule: Q01DX009 (ip), vehicle: saline 97 % of control and 104 % of control | endpoint: mean survival time, dose: 3.0 micrograms/kg/injection, schedule: Q01DX009 (ip), vehicle: saline 102 % of control and 104 % of control | endpoint: mean survival time, dose: 3.1 micrograms/kg/injection, schedule: Q01DX001 (ip), vehicle: saline 100 % of control | endpoint: mean survival time, dose: 3.2 micrograms/kg/injection, schedule: Q01DX Z (ip), vehicle: saline 107 % of control | endpoint: mean survival time, dose: 3.5 micrograms/kg/injection, schedule: Q01DX009 (ip), vehicle: saline 97 % of control | endpoint: mean survival time, dose: 3.5 micrograms/kg/injection, schedule: Q01DX Z (ip), vehicle: carboxymethylcellulose (CMC) 109 % of control | endpoint: mean survival time, dose: 4.0 micrograms/kg/injection, schedule: Q01DX009 (ip), vehicle: water 103 % of control and 106 % of control | endpoint: mean survival time, dose: 5.4 micrograms/kg/injection, schedule: Q01DX Z (ip), vehicle: carboxymethylcellulose (CMC) 111 % of control | endpoint: mean survival time, dose: 6.3 micrograms/kg/injection, schedule: Q01DX001 (ip), vehicle: saline 107 % of control | endpoint: mean survival time, dose: 12.0 micrograms/kg/injection, schedule: Q01DX006 (iv), vehicle: other 103 % of control | endpoint: mean survival time, dose: 12.0 micrograms/kg/injection, schedule: Q01DX Z (im), vehicle: other 103 % of control | endpoint: mean survival time, dose: 12.0 micrograms/kg/injection, schedule: Q01DX Z (sc), vehicle: other 105 % of control | endpoint: mean survival time, dose: 12.5 micrograms/kg/injection, schedule: Q01DX001 (ip), vehicle: saline 101 % of control | endpoint: mean survival time, dose: 12.5 micrograms/kg/injection, schedule: Q01DX009 (ip), vehicle: water 103 % of control | endpoint: mean survival time, dose: 17.0 micrograms/kg/injection, schedule: Q04DX002 (ip), vehicle: saline 97 % of control and 100 % of control | endpoint: mean survival time, dose: 20.0 micrograms/kg/injection, schedule: Q01DX015 (ip), vehicle: saline 108 % of control | endpoint: mean survival time, dose: 25.0 micrograms/kg/injection, schedule: Q01DX001 (ip), vehicle: saline 111 % of control | endpoint: mean survival time, dose: 25.0 micrograms/kg/injection, schedule: Q01DX009 (ip), vehicle: water 106 % of control | endpoint: mean survival time, dose: 25.0 micrograms/kg/injection, schedule: Q01DX Z (sc), vehicle: other 103 % of control | endpoint: mean survival time, dose: 35.0 micrograms/kg/injection, schedule: Q04DX002 (ip), vehicle: saline 103 % of control and 106 % of control | endpoint: mean survival time, dose: 40.0 micrograms/kg/injection, schedule: Q01DX Z (ip), vehicle: carboxymethylcellulose (CMC) 110 % of control | endpoint: mean survival time, dose: 50.0 micrograms/kg/injection, schedule: Q01DX001 (ip), vehicle: saline 109 % of control | endpoint: mean survival time, dose: 50.0 micrograms/kg/injection, schedule: Q01DX009 (ip), vehicle: water 105 % of control | endpoint: mean survival time, dose: 50.0 micrograms/kg/injection, schedule: Q01DX Z (oral), vehicle: other 111 % of control | endpoint: mean survival time, dose: 60.0 micrograms/kg/injection, schedule: Q01DX Z (ip), vehicle: carboxymethylcellulose (CMC) 100 % of control | endpoint: mean survival time, dose: 64.0 micrograms/kg/injection, schedule: Q01DX001 (ip), vehicle: clinical formulation 107 % of control | endpoint: mean survival time, dose: 64.0 micrograms/kg/injection, schedule: Q01DX001 (ip), vehicle: saline 104 % of control | endpoint: mean survival time, dose: 64.0 micrograms/kg/injection, schedule: Q01DX009 (ip), vehicle: clinical formulation 103 % of control | endpoint: mean survival time, dose: 70.0 micrograms/kg/injection, schedule: Q04DX002 (ip), vehicle: saline 109 % of control | endpoint: mean survival time, dose: 100.0 micrograms/kg/injection, schedule: Q01DX001 (ip), vehicle: saline 109 % of control | endpoint: mean survival time, dose: 100.0 micrograms/kg/injection, schedule: Q01DX009 (ip), vehicle: saline + alcohol 103 % of control | endpoint: mean survival time, dose: 100.0 micrograms/kg/injection, schedule: Q01DX Z (ip), vehicle: other 101 % of control | endpoint: mean survival time, dose: 100.0 micrograms/kg/injection, schedule: Q01DX Z (oral), vehicle: other 107 % of control | endpoint: mean survival time, dose: 128.0 micrograms/kg/injection, schedule: Q01DX001 (ip), vehicle: clinical formulation 109 % of control | endpoint: mean survival time, dose: 128.0 micrograms/kg/injection, schedule: Q01DX001 (ip), vehicle: saline 109 % of control | endpoint: mean survival time, dose: 140.0 micrograms/kg/injection, schedule: Q04DX002 (ip), vehicle: saline 93 % of control and 102 % of control | endpoint: mean survival time, dose: 280.0 micrograms/kg/injection, schedule: Q04DX002 (ip), vehicle: saline 106 % of control | endpoint: mean survival time, dose: 512.0 micrograms/kg/injection, schedule: Q04DX003 (ip), vehicle: water 100 % of control | endpoint: mean survival time, dose: 570.0 micrograms/kg/injection, schedule: Q04DX002 (ip), vehicle: saline 100 % of control | endpoint: median survival time, dose: 0.01 mg/kg/injection, schedule: Q01DX009 (ip), vehicle: water 107 % of control | endpoint: median survival time, dose: 0.02 mg/kg/injection, schedule: Q01DX009 (ip), vehicle: water 109 % of control (2×) and 110 % of control | endpoint: median survival time, dose: 0.03 mg/kg/injection, schedule: Q04DX003 (ip), vehicle: water 100 % of control | endpoint: median survival time, dose: 0.05 mg/kg/injection, schedule: Q01DX001 (ip), vehicle: saline 98 % of control | endpoint: median survival time, dose: 0.05 mg/kg/injection, schedule: Q01DX002 (ip), vehicle: saline 111 % of control | endpoint: median survival time, dose: 0.06 mg/kg/injection, schedule: Q01DX001 (ip), vehicle: water 100 % of control | endpoint: median survival time, dose: 0.06 mg/kg/injection, schedule: Q04DX003 (ip), vehicle: water 107 % of control | endpoint: median survival time, dose: 0.06 mg/kg/injection, schedule: Q08DX002 (ip), vehicle: water 94 % of control | endpoint: median survival time, dose: 0.08 mg/kg/injection, schedule: Q01DX009 (ip), vehicle: water 108 % of control | endpoint: median survival time, dose: 0.1 mg/kg/injection, schedule: Q01DX001 (ip), vehicle: saline 102 % of control | endpoint: median survival time, dose: 0.12 mg/kg/injection, schedule: Q01DX001 (ip), vehicle: water 111 % of control | endpoint: median survival time, dose: 0.12 mg/kg/injection, schedule: Q08DX002 (ip), vehicle: water 105 % of control | endpoint: median survival time, dose: 0.2 mg/kg/injection, schedule: Q01DX001 (ip), vehicle: saline 109 % of control | endpoint: median survival time, dose: 0.4 mg/kg/injection, schedule: Q01DX001 (ip), vehicle: saline 111 % of control | endpoint: median survival time, dose: 0.5 mg/kg/injection, schedule: Q04DX003 (ip), vehicle: water 96 % of control | endpoint: median survival time, dose: 4.0 micrograms/kg/injection, schedule: Q03HX016 (ip), vehicle: water 94 % of control | endpoint: median survival time, dose: 8.0 micrograms/kg/injection, schedule: Q03HX008 (ip), vehicle: water 100 % of control | endpoint: median survival time, dose: 8.0 micrograms/kg/injection, schedule: Q03HX016 (ip), vehicle: water 111 % of control | endpoint: median survival time, dose: 16.0 micrograms/kg/injection, schedule: Q03HX008 (ip), vehicle: water 111 % of control | endpoint: median survival time, dose: 16.0 micrograms/kg/injection, schedule: Q03HX016 (ip), vehicle: water 100 % of control | endpoint: median survival time, dose: 31.0 micrograms/kg/injection, schedule: Q03HX016 (ip), vehicle: water 100 % of control | endpoint: median survival time, dose: 200.0 micrograms/kg/injection, schedule: Q01DX009 (ip), vehicle: saline 93 % of control
